# Laboratory results taken from patent US20050054555A1, “Kahalalide compounds for use in cancer therapy” (priority 2001, published 2005).
# Assays:
# [1] = system: advanced or metastatic androgen refractory prostate cancer
# Description: OBJECTIVE: In the present phase I clinical and pharmacokinetic (PK) study the toxicity profiles PK and anti-tumour activity of KF are investigated. METHODS: KF is administered as an intravenous infusion over one hour, during five consecutive days every three weeks in patients with advanced or metastatic androgen refractory prostate cancer. On the basis of the MTD values defined in mice, a starting dose of 20 μg/m2/day was selected, which is equivalent to a total dose of 100 μg/m2. PK of KF were determined in plasma during the first course. Bioanalysis of KF was performed by LC-MS/MS. LDH, AF and especially PSA levels of each patient were also evaluated during the study to determine the activity of KF. […] One patient per level was entered at 20, 40, 80 and 160 μg/m2/day. […] The first patient of this study was re-entered at this dose level.
# [2] = system: patients with advanced or metastatic prostate cancer; assay: Phase I trial KHF-A-001-00: safety of kahalalide F daily x 5 over 1 hour infusion every 21 days; assay type: in vivo, human
# Text: The rate of subject entry and escalation to the next dose level will depend upon assessment of the safety profile of patients entered at each dose level. Toxicity will be evaluated and graded according to the Common Toxicity Criteria, version 2.0.
# In order to minimize the number of patients treated at the subtoxic dose levels, a single patient will be treated per dose level with 100% dose escalation in the absence of any toxicity G2 (excluding alopecia) during their first course of treatment. After the occurrence of grade 2 toxicity (excluding asthenia, alopecia, nausea and vomiting or anemia), the dose level is expanded to three patients with only 50% incremental increase in dosage in advancing to the next dose level. For the occurrence of grade 3 non-hematological toxic effects the dose level should be expanded up to six patients. This second cohort of 3 patients will be included consecutively. If the first or second patient develops dose limiting toxicities no further patients will be treated at this dose level, it will be defined as MTD and the accrual will begin at a lower dose level. If only one DLT occurs at this dose level another 3 patients will be included at the next dose level with an increase of 25% only.
# There is no intrapatient dose escalation, only de-escalation. If the toxicity is grade 3 or worse in a course of chemotherapy, then the dose is reduced one level for the next course.
# The maximum tolerated dose (MTD) is defined as the dose at which at least 2 out of 3 or more than 3 patients experience DLT. However, it is possible that additional patients may experience DLT due to the timing of patient enrollment into that dose level.
# Dose limiting toxicities (DLTs) are defined as follows: […]
# Grade IV Neutropenia lasting for >5 days or with a temperature >38.5.
# Grade IV thrombocytopenia.
# Any other grade III or IV non hematological toxicity, excluding nausea, emesis and hypersensitivity reactions.
# Grade III or IV liver toxicity if not reversible by day 21.
# These toxicities are only considered DLTs if they happen during cycle 1. […]
# A dose of 20 mcg/m2 was considered a safe starting dose on the basis of acute toxicity studies in animals. The trial was designed as an accelerated dose escalation (pharmacokinetically guided).
# [3] = 19 patients, daily x5 every 21 days, all dose levels
# [4] = 20 patients, daily x5 every 21 days, all dose levels
# [5] = 20 patients, daily x5 every 21 days, all dose levels, calcium adjusted
# [6] = 20 patients, daily x5 every 21 days, all dose levels, not drug-related
smiles,measurement,setting,value
"C/C=C1\NC(=O)[C@H](Cc2ccccc2)NC(=O)[C@@H](C(C)C)NC(=O)[C@@H](C(C)CC)NC(=O)[C@H](NC(=O)C(NC(=O)[C@H](CCCN)NC(=O)[C@H]2CCCN2C(=O)[C@H](NC(=O)[C@@H](NC(=O)[C@@H](NC(=O)[C@H](NC(=O)CCCC(C)C)C(C)C)C(C)O)C(C)C)C(C)C)C(C)CC)C(C)OC(=O)[C@H](C(C)C)NC1=O (single isomer, unassigned) [kahalalide F]",decrease in PSA level,"[1]; one patient, associated with pain relief, preliminary report",> 50%
same,"response evaluated by PSA, one patient","[1]; patient received 8 cycles, clinical improvement",partial response
same,PSA change in two additional patients,[1]; preliminary report,minor PSA reductions
same,only drug related toxicity to date,"[2]; 320 μg/m2/day, rapidly reversible, preliminary report, 7 patients",CTC grade 3 ASAT
same,"Hematologic toxicity (worst per patient): Hemoglobin, Grade 1",[2]; [3],63.2%
same,"Hematologic toxicity (worst per patient): Hemoglobin, Grade 2",[2]; [3],26.3%
same,"Hematologic toxicity (worst per patient): Hemoglobin, Grade 3",[2]; [3],0%
same,"Hematologic toxicity (worst per patient): Hemoglobin, Grade 4",[2]; [3],0%
same,"Hematologic toxicity (worst per patient): Leukocytes, Grade 1",[2]; [3],10.5%
same,"Hematologic toxicity (worst per patient): Leukocytes, Grade 2",[2]; [3],0%
same,"Hematologic toxicity (worst per patient): Leukocytes, Grade 3",[2]; [3],0%
same,"Hematologic toxicity (worst per patient): Leukocytes, Grade 4",[2]; [3],0%
same,"Hematologic toxicity (worst per patient): Neutrophils, Grade 1",[2]; [3],5%
same,"Hematologic toxicity (worst per patient): Neutrophils, Grade 2",[2]; [3],5%
same,"Hematologic toxicity (worst per patient): Neutrophils, Grade 3",[2]; [3],0%
same,"Hematologic toxicity (worst per patient): Neutrophils, Grade 4",[2]; [3],0%
same,"Hematologic toxicity (worst per patient): Platelets, Grade 1",[2]; [3],21.1%
same,"Hematologic toxicity (worst per patient): Platelets, Grade 2",[2]; [3],0%
same,"Hematologic toxicity (worst per patient): Platelets, Grade 3",[2]; [3],0%
same,"Hematologic toxicity (worst per patient): Platelets, Grade 4",[2]; [3],0%
same,"Most frequently reported non-hematologic toxicities: Diarrhea, Grade 1",[2]; [4],10
same,"Most frequently reported non-hematologic toxicities: Diarrhea, Grade 2",[2]; [4],5
same,"Most frequently reported non-hematologic toxicities: Diarrhea, Grade 3",[2]; [4],0
same,"Most frequently reported non-hematologic toxicities: Diarrhea, Grade 4",[2]; [4],0
same,"Most frequently reported non-hematologic toxicities: Fatigue, Grade 1",[2]; [4],35
same,"Most frequently reported non-hematologic toxicities: Fatigue, Grade 2",[2]; [4],10
same,"Most frequently reported non-hematologic toxicities: Fatigue, Grade 3",[2]; [4],25
same,"Most frequently reported non-hematologic toxicities: Fatigue, Grade 4",[2]; [4],0
same,"Most frequently reported non-hematologic toxicities: Hypersensitivity, Grade 1",[2]; [4],20
same,"Most frequently reported non-hematologic toxicities: Hypersensitivity, Grade 2",[2]; [4],5
same,"Most frequently reported non-hematologic toxicities: Hypersensitivity, Grade 3",[2]; [4],0
same,"Most frequently reported non-hematologic toxicities: Hypersensitivity, Grade 4",[2]; [4],0
same,"Most frequently reported non-hematologic toxicities: Inject-site reaction, Grade 1",[2]; [4],10
same,"Most frequently reported non-hematologic toxicities: Inject-site reaction, Grade 2",[2]; [4],20
same,"Most frequently reported non-hematologic toxicities: Inject-site reaction, Grade 3",[2]; [4],0
same,"Most frequently reported non-hematologic toxicities: Inject-site reaction, Grade 4",[2]; [4],0
same,"Most frequently reported non-hematologic toxicities: Nausea, Grade 1",[2]; [4],15
same,"Most frequently reported non-hematologic toxicities: Nausea, Grade 2",[2]; [4],10
same,"Most frequently reported non-hematologic toxicities: Nausea, Grade 3",[2]; [4],0
same,"Most frequently reported non-hematologic toxicities: Nausea, Grade 4",[2]; [4],0
same,"Most frequently reported non-hematologic toxicities: Periph-sens neuro, Grade 1",[2]; [4],20
same,"Most frequently reported non-hematologic toxicities: Periph-sens neuro, Grade 2",[2]; [4],0
same,"Most frequently reported non-hematologic toxicities: Periph-sens neuro, Grade 3",[2]; [4],5
same,"Most frequently reported non-hematologic toxicities: Periph-sens neuro, Grade 4",[2]; [4],0
same,"Most frequently reported non-hematologic toxicities: Vomiting, Grade 1",[2]; [4],15
same,"Most frequently reported non-hematologic toxicities: Vomiting, Grade 2",[2]; [4],10
same,"Most frequently reported non-hematologic toxicities: Vomiting, Grade 3",[2]; [4],0
same,"Most frequently reported non-hematologic toxicities: Vomiting, Grade 4",[2]; [4],0
same,"Non-hematologic toxicity, lab abnormalities per patient: Albumin, Grade 1",[2]; [4],30%
same,"Non-hematologic toxicity, lab abnormalities per patient: Albumin, Grade 2",[2]; [4],10%
same,"Non-hematologic toxicity, lab abnormalities per patient: Albumin, Grade 3",[2]; [4],5%
same,"Non-hematologic toxicity, lab abnormalities per patient: Albumin, Grade 4",[2]; [4],0%
same,"Non-hematologic toxicity, lab abnormalities per patient: Bilirubin, Grade 1",[2]; [4],10%
same,"Non-hematologic toxicity, lab abnormalities per patient: Bilirubin, Grade 2",[2]; [4],0%
same,"Non-hematologic toxicity, lab abnormalities per patient: Bilirubin, Grade 3",[2]; [4],0%
same,"Non-hematologic toxicity, lab abnormalities per patient: Bilirubin, Grade 4",[2]; [4],0%
same,"Non-hematologic toxicity, lab abnormalities per patient: CPK, Grade 1",[2]; [4],35%
same,"Non-hematologic toxicity, lab abnormalities per patient: CPK, Grade 2",[2]; [4],0%
same,"Non-hematologic toxicity, lab abnormalities per patient: CPK, Grade 3",[2]; [4],0%
same,"Non-hematologic toxicity, lab abnormalities per patient: CPK, Grade 4",[2]; [4],0%
same,"Non-hematologic toxicity, lab abnormalities per patient: Creatinine, Grade 1",[2]; [4],35%
same,"Non-hematologic toxicity, lab abnormalities per patient: Creatinine, Grade 2",[2]; [4],0%
same,"Non-hematologic toxicity, lab abnormalities per patient: Creatinine, Grade 3",[2]; [4],0%
same,"Non-hematologic toxicity, lab abnormalities per patient: Creatinine, Grade 4",[2]; [4],0%
same,"Non-hematologic toxicity, lab abnormalities per patient: GGT, Grade 1",[2]; [4],35%
same,"Non-hematologic toxicity, lab abnormalities per patient: GGT, Grade 2",[2]; [4],15%
same,"Non-hematologic toxicity, lab abnormalities per patient: GGT, Grade 3",[2]; [4],25%
same,"Non-hematologic toxicity, lab abnormalities per patient: GGT, Grade 4",[2]; [4],5%
same,"Non-hematologic toxicity, lab abnormalities per patient: GOT, Grade 1",[2]; [4],40%
same,"Non-hematologic toxicity, lab abnormalities per patient: GOT, Grade 2",[2]; [4],15%
same,"Non-hematologic toxicity, lab abnormalities per patient: GOT, Grade 3",[2]; [4],15%
same,"Non-hematologic toxicity, lab abnormalities per patient: GOT, Grade 4",[2]; [4],10%
same,"Non-hematologic toxicity, lab abnormalities per patient: GPT, Grade 1",[2]; [4],15%
same,"Non-hematologic toxicity, lab abnormalities per patient: GPT, Grade 2",[2]; [4],25%
same,"Non-hematologic toxicity, lab abnormalities per patient: GPT, Grade 3",[2]; [4],20%
same,"Non-hematologic toxicity, lab abnormalities per patient: GPT, Grade 4",[2]; [4],10%
same,"Non-hematologic toxicity, lab abnormalities per patient: Hypo P, Grade 1",[2]; [4],10%
same,"Non-hematologic toxicity, lab abnormalities per patient: Hypo P, Grade 2",[2]; [4],15%
same,"Non-hematologic toxicity, lab abnormalities per patient: Hypo P, Grade 3",[2]; [4],0%
same,"Non-hematologic toxicity, lab abnormalities per patient: Hypo P, Grade 4",[2]; [4],0%
same,"Non-hematologic toxicity, lab abnormalities per patient: HypoK+, Grade 1",[2]; [4],20%
same,"Non-hematologic toxicity, lab abnormalities per patient: HypoK+, Grade 2",[2]; [4],0%
same,"Non-hematologic toxicity, lab abnormalities per patient: HypoK+, Grade 3",[2]; [4],0%
same,"Non-hematologic toxicity, lab abnormalities per patient: HypoK+, Grade 4",[2]; [4],0%
same,"Non-hematologic toxicity, lab abnormalities per patient: HypoNa+, Grade 1",[2]; [4],10%
same,"Non-hematologic toxicity, lab abnormalities per patient: HypoNa+, Grade 2",[2]; [4],0%
same,"Non-hematologic toxicity, lab abnormalities per patient: HypoNa+, Grade 3",[2]; [4],5%
same,"Non-hematologic toxicity, lab abnormalities per patient: HypoNa+, Grade 4",[2]; [4],5%
same,"Non-hematologic toxicity, lab abnormalities per patient: HypoCa*, Grade 1",[2]; [5],65%
same,"Non-hematologic toxicity, lab abnormalities per patient: HypoCa*, Grade 2",[2]; [5],0%
same,"Non-hematologic toxicity, lab abnormalities per patient: HypoCa*, Grade 3",[2]; [5],0%
same,"Non-hematologic toxicity, lab abnormalities per patient: HypoCa*, Grade 4",[2]; [5],0%
same,"Most frequently reported non-hematologic toxicities: Hypertension, Grade 1",[2]; [6],0
same,"Most frequently reported non-hematologic toxicities: Hypertension, Grade 2",[2]; [6],0
same,"Most frequently reported non-hematologic toxicities: Hypertension, Grade 3",[2]; [6],15
same,"Most frequently reported non-hematologic toxicities: Hypertension, Grade 4",[2]; [6],0
same,"Non-hematologic toxicity, lab abnormalities per patient: Alk. phosphatase, Grade 1",[2]; [6],35%
same,"Non-hematologic toxicity, lab abnormalities per patient: Alk. phosphatase, Grade 2",[2]; [6],20%
same,"Non-hematologic toxicity, lab abnormalities per patient: Alk. phosphatase, Grade 3",[2]; [6],25%
same,"Non-hematologic toxicity, lab abnormalities per patient: Alk. phosphatase, Grade 4",[2]; [6],5%
same,Worst toxicity,"[2]; Level I, dose 20 mcg/m2, 1 patient",none
same,Worst toxicity,"[2]; Level II, dose 40, 1 patient",none
same,Worst toxicity,"[2]; Level III, dose 80, 1 patient",none
same,Worst toxicity,"[2]; Level IV, dose 160, 1 patient",none
same,Worst toxicity,"[2]; Level VI, dose 425, 3 patients",none
same,Worst toxicity,"[2]; Level VIII, dose 700, 3 patients",none
same,hematological toxicity,[2]; daily x5 schedule,no hematological toxicity was seen
same,most commonly seen liver toxicity in the MTD,[2]; daily x5 schedule,grade 4 transaminases elevation
